From patent US20090016990A1, “Antimicrobial Compositions” (priority 2007, published 2009)

Legend:
[1] = test system: Pseudomonas aeruginosa ATCC 27853; assay: MBEC assay, biofilm elimination, MBEC bioFILM PA panel; assay type: cell-based; parameters: MBEC-Biofilm Elimination, Without compound 2 / MBEC-Biofilm Elimination, With 0.01% compound 2 in 5% EtOH/PBS / MBEC-Biofilm Elimination, Without compound 7 / MBEC-Biofilm Elimination, With 0.01% compound 7 in 5% EtOH/PBS / MBEC-Biofilm Elimination, Without compound 1 / MBEC-Biofilm Elimination, With 0.01% compound 1 in 5% EtOH/PBS / MBEC-Biofilm Elimination, without salt of compound 2 / MBEC-Biofilm Elimination, with 0.1% salt of compound 2: unit not given here; details: for MBEC-Biofilm Elimination, without salt of compound 2 / MBEC-Biofilm Elimination, with 0.1% salt of compound 2: Table 9; for MBEC-Biofilm Elimination, without salt of compound 2 / MBEC-Biofilm Elimination, without salt of compound 6: antibiotic or antibiotic combination alone; for MBEC-Biofilm Elimination, without salt of compound 2 / MBEC-Biofilm Elimination, with 0.1% salt of compound 2 / MBEC-Biofilm Elimination, without salt of compound 6 / MBEC-Biofilm Elimination, with 0.1% salt of compound 6: value per component; for MBEC-Biofilm Elimination, with 0.1% salt of compound 2: antibiotic or combination plus 0.1% salt of compound 2; for MBEC-Biofilm Elimination, without salt of compound 6 / MBEC-Biofilm Elimination, with 0.1% salt of compound 6: Table 10; for MBEC-Biofilm Elimination, with 0.1% salt of compound 6: antibiotic or combination plus 0.1% salt of compound 6; for MBEC-Biofilm Elimination, Without compound 1 / MBEC-Biofilm Elimination, Without compound 2 / MBEC-Biofilm Elimination, Without compound 3 / MBEC-Biofilm Elimination, Without compound 6 / MBEC-Biofilm Elimination, Without compound 7 / MBEC-Biofilm Elimination, Without compound 9: antibiotic alone
[2] = test system: Pseudomonas aeruginosa ATCC 27853; assay: MBEC assay, biofilm inhibition (prevention of biofilm formation), MBEC bioFILM PA panel; assay type: cell-based; parameters: MBEC-Biofilm Inhibition, Without compound 9 / MBEC-Biofilm Inhibition, Without compound 6 / MBEC-Biofilm Inhibition, Without compound 2 / MBEC-Biofilm Inhibition, Without compound 7 / MBEC-Biofilm Inhibition, With 0.01% compound 7 in 5% EtOH/PBS / MBEC-Biofilm Inhibition, without salt of compound 2 / MBEC-Biofilm Inhibition, with 0.1% salt of compound 2 / MBEC-Biofilm Inhibition, without salt of compound 6: unit not given here; details: for MBEC-Biofilm Inhibition, without salt of compound 2 / MBEC-Biofilm Inhibition, with 0.1% salt of compound 2: Table 9; for MBEC-Biofilm Inhibition, without salt of compound 2 / MBEC-Biofilm Inhibition, without salt of compound 6: antibiotic or antibiotic combination alone; for MBEC-Biofilm Inhibition, without salt of compound 2 / MBEC-Biofilm Inhibition, with 0.1% salt of compound 2 / MBEC-Biofilm Inhibition, without salt of compound 6 / MBEC-Biofilm Inhibition, with 0.1% salt of compound 6: value per component; for MBEC-Biofilm Inhibition, without salt of compound 2: separated by /; for MBEC-Biofilm Inhibition, with 0.1% salt of compound 2: antibiotic or combination plus 0.1% salt of compound 2; for MBEC-Biofilm Inhibition, without salt of compound 6 / MBEC-Biofilm Inhibition, with 0.1% salt of compound 6: Table 10; for MBEC-Biofilm Inhibition, with 0.1% salt of compound 6: antibiotic or combination plus 0.1% salt of compound 6; for MBEC-Biofilm Inhibition, Without compound 1 / MBEC-Biofilm Inhibition, Without compound 2 / MBEC-Biofilm Inhibition, Without compound 3 / MBEC-Biofilm Inhibition, Without compound 6 / MBEC-Biofilm Inhibition, Without compound 7 / MBEC-Biofilm Inhibition, Without compound 9: antibiotic alone; for MBEC: antibiotic or combination alone, concentrations in order of the combination; for MBEC, μg/mL +Compound 1: antibiotic plus Compound 1; for MBEC, μg/mL +Compound 2: antibiotic plus Compound 2; for MBEC, μg/mL +Compound 7: antibiotic plus Compound 7; for MBEC-Biofilm Inhibition, With 0.01% compound 1 in 5% EtOH/PBS / value in parentheses after MBEC-Biofilm Inhibition with 0.01% compound 1 (% reduction as in Table 2): with 0.01% compound 1 in 5% EtOH/PBS
[3] = reduction of antibiotic or combination required to prevent biofilm formation
[4] = with 0.01% compound 2 in 5% EtOH/PBS

SMILES | MBEC-Biofilm Elimination, without salt of compound 2 [1] | MBEC-Biofilm Elimination, with 0.1% salt of compound 2 [1] | MBEC-Biofilm Elimination, without salt of compound 6 [1] | MBEC-Biofilm Elimination, with 0.1% salt of compound 6 [1] | MBEC-Biofilm Elimination, Without compound 1 [1] | MBEC-Biofilm Elimination, Without compound 2 [1] | MBEC-Biofilm Elimination, Without compound 3 [1] | MBEC-Biofilm Elimination, Without compound 6 [1] | MBEC-Biofilm Elimination, Without compound 7 [1] | MBEC-Biofilm Elimination, Without compound 9 [1] | MBEC-Biofilm Elimination, With 0.01% compound 1 in 5% EtOH/PBS [1] | MBEC-Biofilm Elimination, With 0.01% compound 2 in 5% EtOH/PBS [1] | MBEC-Biofilm Elimination, With 0.01% compound 7 in 5% EtOH/PBS [1] | MBEC-Biofilm Elimination, With 0.05% compound 3 in 5% EtOH/PBS [1] | MBEC-Biofilm Elimination, With 0.05% compound 6 in 5% EtOH/PBS [1] | MBEC-Biofilm Inhibition, without salt of compound 2 [2] | MBEC-Biofilm Inhibition, with 0.1% salt of compound 2 [2] | MBEC-Biofilm Inhibition, without salt of compound 6 [2] | MBEC-Biofilm Inhibition, with 0.1% salt of compound 6 [2] | MBEC-Biofilm Inhibition, Without compound 1 [2] | also measured
O=C(O)c1cn(C2CC2)c2cc(N3CCNCC3)c(F)cc2c1=O [CP, ciprofloxacin] | >0.5 | 0.5 | >0.5 | >0.5 | >0.5 | >0.5 | >0.5 | >0.5 | >0.5 | >0.5 | >0.5 | >0.5 | >0.5 | >0.5 | >0.5 | >0.5 | >0.5 | >0.5 | >0.5 | >0.5 | MBEC-Biofilm Inhibition, Without compound 2 [2]: >0.5; MBEC-Biofilm Inhibition, Without compound 3 [2]: >0.5; MBEC-Biofilm Inhibition, Without compound 6 [2]: >0.5; MBEC-Biofilm Inhibition, Without compound 7 [2]: >0.5; MBEC-Biofilm Inhibition, Without compound 9 [2]: 0.5; MBEC [2]: >0.5 µg/mL; MBEC, μg/mL +Compound 1 [2]: 0.5 µg/mL; MBEC, μg/mL +Compound 2 [2]: >0.5 µg/mL; MBEC, μg/mL +Compound 7 [2]: 0.5 µg/mL; (% reduction) +Compound 1 [2, 3]: > 50%; (% reduction) +Compound 7 [2, 3]: > 50%; MBEC-Biofilm Inhibition, With 0.01% compound 1 in 5% EtOH/PBS [2]: 0.5; value in parentheses after MBEC-Biofilm Inhibition with 0.01% compound 1 (% reduction as in Table 2) [2]: ≥ 50; MBEC-Biofilm Inhibition, With 0.01% compound 2 in 5% EtOH/PBS [2, 4]: 0.5; value in parentheses after MBEC-Biofilm Inhibition with 0.01% compound 2 (% reduction as in Table 2) [2, 4]: ≥ 50; MBEC-Biofilm Inhibition, With 0.01% compound 7 in 5% EtOH/PBS [2]: >0.5; MBEC-Biofilm Inhibition, With 0.05% compound 3 in 5% EtOH/PBS [2]: >0.5; MBEC-Biofilm Inhibition, With 0.05% compound 6 in 5% EtOH/PBS [2]: >0.5
CO/N=C(\C(=O)N[C@@H]1C(=O)N2C(C(=O)[O-])=C(C[N+]3(C)CCCC3)CS[C@H]12)c1csc(N)n1 [CPE, cefepime] | >4 | >4 | >4 | >4 | >4 | >4 | >4 | >4 | >4 | >4 | >4 | >4 | >4 | >4 | >4 | >4 | >4 | >4 | >4 | >4 | MBEC-Biofilm Inhibition, Without compound 2 [2]: >4; MBEC-Biofilm Inhibition, Without compound 3 [2]: >4; MBEC-Biofilm Inhibition, Without compound 6 [2]: >4; MBEC-Biofilm Inhibition, Without compound 7 [2]: >4; MBEC-Biofilm Inhibition, Without compound 9 [2]: >4; MBEC-Biofilm Inhibition, With 0.01% compound 1 in 5% EtOH/PBS [2]: >4; MBEC-Biofilm Inhibition, With 0.01% compound 2 in 5% EtOH/PBS [2, 4]: >4; MBEC-Biofilm Inhibition, With 0.01% compound 7 in 5% EtOH/PBS [2]: >4; MBEC-Biofilm Inhibition, With 0.05% compound 3 in 5% EtOH/PBS [2]: >4; MBEC-Biofilm Inhibition, With 0.05% compound 6 in 5% EtOH/PBS [2]: >4
C[C@@H](O)[C@H]1C(=O)N2C(C(=O)O)=C(S[C@@H]3CN[C@H](C(=O)N(C)C)C3)[C@H](C)[C@H]12 [MER, meropenem] | >1 | >1 | >1 | >1 | >1 | >1 | >1 | >1 | >1 | >1 | >1 | >1 | >1 | 1 | >1 | >2 | >2 | >2 | >2 | >2 | MBEC-Biofilm Elimination, With 0.1% w/v compound 9 in PBS [1]: >1; MBEC-Biofilm Inhibition, Without compound 2 [2]: >2; MBEC-Biofilm Inhibition, Without compound 3 [2]: >2; MBEC-Biofilm Inhibition, Without compound 6 [2]: >2; MBEC-Biofilm Inhibition, Without compound 7 [2]: >2; MBEC-Biofilm Inhibition, Without compound 9 [2]: >2; MBEC-Biofilm Inhibition, With 0.01% compound 1 in 5% EtOH/PBS [2]: >2; MBEC-Biofilm Inhibition, With 0.01% compound 2 in 5% EtOH/PBS [2, 4]: >2; MBEC-Biofilm Inhibition, With 0.01% compound 7 in 5% EtOH/PBS [2]: >2; MBEC-Biofilm Inhibition, With 0.05% compound 3 in 5% EtOH/PBS [2]: >2; MBEC-Biofilm Inhibition, With 0.05% compound 6 in 5% EtOH/PBS [2]: >2; MBEC-Biofilm Inhibition, With 0.1% w/v compound 9 in PBS [2]: >2
NC[C@H]1O[C@H](O[C@H]2[C@H](O)[C@@H](O[C@H]3O[C@H](CO)[C@@H](O)[C@H](N)[C@H]3O)[C@H](N)C[C@@H]2N)[C@H](N)C[C@@H]1O [TO, tobramycin] | >2 | >2 | >2 | >2 | >2 | >2 | >2 | >2 | >2 | >2 | >2 | 1 | 0.5 | >2 | >2 | >2 | >2 | >2 | >2 | >2 | MBEC-Biofilm Elimination, With 0.1% w/v compound 9 in PBS [1]: >2; MBEC-Biofilm Inhibition, Without compound 2 [2]: >2; MBEC-Biofilm Inhibition, Without compound 3 [2]: >2; MBEC-Biofilm Inhibition, Without compound 6 [2]: >2; MBEC-Biofilm Inhibition, Without compound 7 [2]: >2; MBEC-Biofilm Inhibition, Without compound 9 [2]: 2; MBEC [2]: >2 µg/mL; MBEC, μg/mL +Compound 1 [2]: 0.5 to 2 µg/mL; MBEC, μg/mL +Compound 2 [2]: >2 µg/mL; MBEC, μg/mL +Compound 7 [2]: >2 µg/mL; (% reduction) +Compound 1 [2, 3]: > 50%; MBEC-Biofilm Inhibition, With 0.01% compound 1 in 5% EtOH/PBS [2]: 0.5-2; value in parentheses after MBEC-Biofilm Inhibition with 0.01% compound 1 (% reduction as in Table 2) [2]: ≥ 50; MBEC-Biofilm Inhibition, With 0.01% compound 2 in 5% EtOH/PBS [2, 4]: >2; MBEC-Biofilm Inhibition, With 0.01% compound 7 in 5% EtOH/PBS [2]: >2; MBEC-Biofilm Inhibition, With 0.05% compound 3 in 5% EtOH/PBS [2]: >2; MBEC-Biofilm Inhibition, With 0.05% compound 6 in 5% EtOH/PBS [2]: >2; MBEC-Biofilm Inhibition, With 0.1% w/v compound 9 in PBS [2]: >2
